Test results reported in ChEMBL document CHEMBL4304794.
Calls of active or inactive are those of the source. The rule behind the calls is not given here.

How the values were obtained:
[1] = target: Programmed cell death protein 1 (Homo sapiens) (UniProt Q15116); assay: Binding affinity to biotinylated recombinant human C-terminal FC -tagged PD1 (25 to 167 residues) at 0.3 to 300 uM by SPR analysis
[2] = target: Programmed cell death 1 ligand 1 (Homo sapiens) (UniProt Q9NZQ7); assay: Inhibition of PDL1 in human […] cells assessed as recovery of mouse splenocyte proliferation at 100 nM by CFSE-based FACS analysis relative to control; type: cell-based
[3] = target: Programmed cell death 1 ligand 1 (Mus musculus) (UniProt Q9EP73); assay: Inhibition of recombinant mouse N-terminal PDL1 (19 to 238 residues) assessed as recovery of mouse splenocyte proliferation at 100 nM by CFSE-based FACS analysis relative to control
Sequence of Programmed cell death 1 ligand 1 (Mus musculus) (Q9EP73 whole entry, the tested form may be a part): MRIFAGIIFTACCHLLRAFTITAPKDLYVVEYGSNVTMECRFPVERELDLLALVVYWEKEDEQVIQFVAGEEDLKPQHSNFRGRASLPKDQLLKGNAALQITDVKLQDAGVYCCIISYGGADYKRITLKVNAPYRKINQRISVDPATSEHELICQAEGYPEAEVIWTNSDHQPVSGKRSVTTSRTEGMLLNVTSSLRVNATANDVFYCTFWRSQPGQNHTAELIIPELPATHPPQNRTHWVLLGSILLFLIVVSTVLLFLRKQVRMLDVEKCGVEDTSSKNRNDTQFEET

Sequence of Programmed cell death protein 1 (Homo sapiens) (Q15116 whole entry, the tested form may be a part): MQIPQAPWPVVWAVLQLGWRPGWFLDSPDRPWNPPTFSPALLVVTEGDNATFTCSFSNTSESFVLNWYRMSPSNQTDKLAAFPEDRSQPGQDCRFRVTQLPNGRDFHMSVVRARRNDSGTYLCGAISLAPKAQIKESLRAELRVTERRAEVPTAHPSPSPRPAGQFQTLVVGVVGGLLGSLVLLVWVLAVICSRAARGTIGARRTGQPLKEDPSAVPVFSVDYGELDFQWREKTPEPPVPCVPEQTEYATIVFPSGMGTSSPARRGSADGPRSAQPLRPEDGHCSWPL
Sequence of Programmed cell death 1 ligand 1 (Homo sapiens) (Q9NZQ7 whole entry, the tested form may be a part): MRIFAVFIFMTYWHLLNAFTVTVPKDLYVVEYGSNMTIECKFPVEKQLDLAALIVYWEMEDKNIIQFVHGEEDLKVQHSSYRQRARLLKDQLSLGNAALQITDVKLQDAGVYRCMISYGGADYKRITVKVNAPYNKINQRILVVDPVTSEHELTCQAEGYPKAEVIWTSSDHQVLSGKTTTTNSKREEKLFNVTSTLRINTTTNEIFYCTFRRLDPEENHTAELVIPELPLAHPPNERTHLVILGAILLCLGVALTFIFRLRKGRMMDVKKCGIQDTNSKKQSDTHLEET

Compound	Activity [1]	inhibition [2] [%]	inhibition [3] [%]
C[C@@H](O)[C@H](NC(=O)N[C@@H](CC(N)=O)C(=O)NNC(=O)[C@@H](N)CO)C(=O)O	inactive	68	–
C#CC[C@H](NC(=O)N[C@H](C(=O)O)[C@@H](C)O)c1nc(-c2cnccn2)no1	inactive	–	92
NC(=O)C[C@H](N)c1nc([C@@H](N)CO)no1	inactive	–	93
